In patent US11015061B2, “Phthalocyanine-based compound and uses of same” (YAMAMOTO CHEMICALS, INC., priority 2017, dated 2021):

Tests used:
Type in all cases: physicochemical
[1] = Heat resistance test of heat ray shielding film; conditions: 200 hours at 100° C., absorbance integrated 400 to 900 nm
Protocol: (§1) In the evaluation test, the release film was peeled from the produced heat ray shielding film, then the heat ray shielding film was compressed on a 5 cm×5 cm×3 mm (thickness) glass plate, and a test piece created in this way was used.
For a heat resistance test, the test piece used for measuring the spectrum before test as described above was treated with heat for 200 hours at a temperature of 100° C. in a thermostat (produced by Yamato Scientific co., ltd.: IG400). By using the spectrophotometer, the absorption spectrum of the heat-treated test piece was measured and adopted as a spectrum after heat resistance test.
(§2) In each of the spectra measured as above before and after the light fastness⋅heat resistance test, the values of absorbance within a range of 400 to 900 nm were integrated, and a difference between the integrated value before the light fastness⋅heat resistance test and the integrated value after the light fastness⋅heat resistance test was calculated.
(§3) The difference ΔE between the absorbance before the light fastness⋅heat resistance test and the absorbance after the light fastness⋅heat resistance test is expressed by the following equation. ΔE (%)={E(400 to 900 nm in E1)−E(400 to 900 nm in E2)}/E(400 to 900 nm in E1)×100
(§4) E1 represents the spectrum before test, E2 represents the spectrum after test, and Σ represents integration of the values of absorbance.
(§5) The larger the value of ΔE, the greater the spectrum change between before and after the light fastness⋅heat resistance test.

[2] = Solubility in organic solvent (cyclopentanone); conditions: about 10 wt % dispersion, room temperature, 0.2 μm filter; no residue = 10 wt % or more
Protocol: The solubility of the phthalocyanine compound with respect to cyclopentanone was measured by the following method.
Cyclopentanone was added to about 1 g of the phthalocyanine compound such that the total weight thereof became about 10 g, and the obtained solution was irradiated with ultrasonic waves for about 30 minutes and then stirred for 2 hours at room temperature, thereby preparing a dispersion liquid of about 10 wt %.
The dispersion liquid was filtered through a membrane filter (0.2 μm), the substance obtained by filtration was dried for 1 hour in a drier at 60° C., and then the weight of the substance obtained by filtration was measured.
The solubility of the phthalocyanine compound in a solvent is expressed by the following equation. Solubility (wt %)=(W0−W1)/W0
W0 represents the correct weight of the phthalocyanine not yet being treated, and W1 represents the weight of the substance obtained by filtration (dissolved phthalocyanine compound residue) having been dried.

[3] = Light fastness test of heat ray shielding film; conditions: xenon light 200 hours at 550 W/h, absorbance integrated 400 to 900 nm
Protocol: as §1
For a light fastness test, the absorption spectrum of the test piece was measured using a spectrophotometer (produced by Hitachi, Ltd.: Spectrophotometer U-3500) and adopted as a spectrum before light fastness test. Then, the test piece used for measuring the spectrum before test was irradiated with light for 200 hours at 550 W/h by using a xenon light fastness tester (produced by Toyo Seiki Seisaku-sho, Ltd.: SUNTEST XLS+). The absorption spectrum of the test piece irradiated with light was measured using the spectrophotometer and adopted as a spectrum after light fastness test.
as §2, §3, §4, §5

ΔE (%) Heat resistance [1]	Solubility to cyclopentanone (wt %) [2]	ΔE (%) Light fastness [3]	SMILES
4%	≥10% wt %	4%	CC(C)(C)c1ccc(OCCCCc2ccc(CCCCOc3ccc(C(C)(C)C)cc3)c3c2-c2nc-3nc3[n-]c(nc4nc(nc5[n-]c(n2)c2c(CCCCOc6ccc(C(C)(C)C)cc6)ccc(CCCCOc6ccc(C(C)(C)C)cc6)c52)-c2c(CCCCOc5ccc(C(C)(C)C)cc5)ccc(CCCCOc5ccc(C(C)(C)C)cc5)c2-4)c2c(CCCCOc4ccc(C(C)(C)C)cc4)ccc(CCCCOc4ccc(C(C)(C)C)cc4)c32)cc1.[O]=[V+2] [Specific Example (1)-42]
3%	≥10% wt %	2%	Fc1ccccc1OCCCCc1ccc(CCCCOc2ccccc2F)c2c1-c1nc-2nc2[n-]c(nc3nc(nc4[n-]c(n1)c1c(CCCCOc5ccccc5F)ccc(CCCCOc5ccccc5F)c41)-c1c(CCCCOc4ccccc4F)ccc(CCCCOc4ccccc4F)c1-3)c1c(CCCCOc3ccccc3F)ccc(CCCCOc3ccccc3F)c21.[O]=[V+2] [Specific Example (1)-43]
4%	≥10% wt %	3%	COc1cccc(OC)c1OCCCCc1ccc(CCCCOc2c(OC)cccc2OC)c2c1-c1nc-2nc2[n-]c(nc3nc(nc4[n-]c(n1)c1c(CCCCOc5c(OC)cccc5OC)ccc(CCCCOc5c(OC)cccc5OC)c41)-c1c(CCCCOc4c(OC)cccc4OC)ccc(CCCCOc4c(OC)cccc4OC)c1-3)c1c(CCCCOc3c(OC)cccc3OC)ccc(CCCCOc3c(OC)cccc3OC)c21.[O]=[V+2] [Specific Example (1)-44]
3%	≥10% wt %	2%	COc1cccc(OC)c1OCCCCc1ccc(CCCCOc2c(OC)cccc2OC)c2c1-c1nc-2nc2[n-]c(nc3nc(nc4[n-]c(n1)c1c(CCCCOc5c(OC)cccc5OC)ccc(CCCCOc5c(OC)cccc5OC)c41)-c1c(CCCCOc4c(OC)cccc4OC)ccc(CCCCOc4c(OC)cccc4OC)c1-3)c1c(CCCCOc3c(OC)cccc3OC)ccc(CCCCOc3c(OC)cccc3OC)c21.[Cu+2] [Specific Example (1)-45]

The remaining lines, values behind:

SMILES	ΔE (%) Heat resistance [1]	Solubility to cyclopentanone (wt %) [2]	ΔE (%) Light fastness [3]
COCc1ccc(COC)c2c1-c1nc-2nc2[n-]c(nc3nc(nc4[n-]c(n1)c1c(COC)ccc(COC)c41)-c1c(COC)ccc(COC)c1-3)c1c(COC)ccc(COC)c21.[O]=[V+2] [Comparative Example Compound (a), reference compound]	31%	≤1% wt %	33%
COCCCCc1ccc(CCCCOC)c2c1-c1nc-2nc2[n-]c(nc3nc(nc4[n-]c(n1)c1c(CCCCOC)ccc(CCCCOC)c41)-c1c(CCCCOC)ccc(CCCCOC)c1-3)c1c(CCCCOC)ccc(CCCCOC)c21.[O]=[V+2] [Specific Example (1)-30]	6%	≥10% wt %	5%
COCCCCc1ccc(CCCCOC)c2c1-c1nc-2nc2[n-]c(nc3nc(nc4[n-]c(n1)c1c(CCCCOC)ccc(CCCCOC)c41)-c1c(CCCCOC)ccc(CCCCOC)c1-3)c1c(CCCCOC)ccc(CCCCOC)c21.[Cu+2] [Specific Example (1)-31]	3%	≥10% wt %	3%
CCOCCCCc1ccc(CCCCOCC)c2c1-c1nc-2nc2[n-]c(nc3nc(nc4[n-]c(n1)c1c(CCCCOCC)ccc(CCCCOCC)c41)-c1c(CCCCOCC)ccc(CCCCOCC)c1-3)c1c(CCCCOCC)ccc(CCCCOCC)c21.[O]=[V+2] [Specific Example (1)-33]	2%	≥10% wt %	3%
[O]=[V+2].c1ccc(OCCCCc2ccc(CCCCOc3ccccc3)c3c2-c2nc-3nc3[n-]c(nc4nc(nc5[n-]c(n2)c2c(CCCCOc6ccccc6)ccc(CCCCOc6ccccc6)c52)-c2c(CCCCOc5ccccc5)ccc(CCCCOc5ccccc5)c2-4)c2c(CCCCOc4ccccc4)ccc(CCCCOc4ccccc4)c32)cc1 [Specific Example (1)-37]	3%	≥10% wt %	5%
[O]=[V+2].c1ccc(OCCOCCCCc2ccc(CCCCOCCOc3ccccc3)c3c2-c2nc-3nc3[n-]c(nc4nc(nc5[n-]c(n2)c2c(CCCCOCCOc6ccccc6)ccc(CCCCOCCOc6ccccc6)c52)-c2c(CCCCOCCOc5ccccc5)ccc(CCCCOCCOc5ccccc5)c2-4)c2c(CCCCOCCOc4ccccc4)ccc(CCCCOCCOc4ccccc4)c32)cc1 [Specific Example (1)-38]	3%	≥10% wt %	5%
COc1cccc(OCCCCc2ccc(CCCCOc3cccc(OC)c3)c3c2-c2nc-3nc3[n-]c(nc4nc(nc5[n-]c(n2)c2c(CCCCOc6cccc(OC)c6)ccc(CCCCOc6cccc(OC)c6)c52)-c2c(CCCCOc5cccc(OC)c5)ccc(CCCCOc5cccc(OC)c5)c2-4)c2c(CCCCOc4cccc(OC)c4)ccc(CCCCOc4cccc(OC)c4)c32)c1.[O]=[V+2] [Specific Example (1)-39]	3%	≥10% wt %	4%
COc1cccc(OCCCCc2ccc(CCCCOc3cccc(OC)c3)c3c2-c2nc-3nc3[n-]c(nc4nc(nc5[n-]c(n2)c2c(CCCCOc6cccc(OC)c6)ccc(CCCCOc6cccc(OC)c6)c52)-c2c(CCCCOc5cccc(OC)c5)ccc(CCCCOc5cccc(OC)c5)c2-4)c2c(CCCCOc4cccc(OC)c4)ccc(CCCCOc4cccc(OC)c4)c32)c1.[Cu+2] [Specific Example (1)-40]	3%	≥10% wt %	2%
